Measured values as given in patent US20040242869A1, “Semicarbazides and their uses” (priority 2001, published 2004).

Row | melting point | SMILES
1 | > 300 °C | COC(=O)Nc1cccc2c1C(=O)c1c-2n[nH]c1-c1ccc(OC)cc1 [Example 11, 3-(4-Methoxyphenyl)-5-methoxycarbonylamino-2H-indeno-[1,2-c]pyrazol-4-one]
2 | 290 to 291 °C | COc1ccc(-c2[nH]nc3c2C(=O)c2c(NC(=O)NN4CCOCC4)cccc2-3)cc1 [Example 4, 1-[3-(4-methoxy-phenyl)-4-oxo-2,4-dihydro-indeno[1,2-c]pyrazol-5-yl]-3-morpholin-4-yl-urea]
3 | 267 to 269 °C | COc1ccc(-c2[nH]nc3c2C(=O)c2c(NC(N)=O)cccc2-3)cc1 [Example 5, [3-(4-methoxy-phenyl)-4-oxo-2,4-dihydro-indeno[1,2-c]pyrazol-5-yl]-urea]
4 | > 300 °C | COc1ccc(-c2[nH]nc3c2C(=O)c2c(NC(=O)CN4CCC(CN)CC4)cccc2-3)cc1 [Example 9, 2-(4-aminomethyl-piperidin-1-yl)-N-[3-(4-methoxy-phenyl)-4-oxo-2,4-dihydro-indeno[1,2-c]pyrazol-5-yl]-acetamide]
